Reference: US12084459B2, “2-(4-{1-[6-(4-isopropyl-phenyl)-imidazo[2,1-b][1,3,4]thiadiazol-2-yl]-piperidin-4-ylmethyl}-piperazin-1-yl)-ethanol and use thereof” (Urifer Ltd., priority 2020, dated 2024)

How the values were obtained:
[1] = system: metastatic pancreatic ductal adenocarcinoma Su.86.86 cancer cells; test: viability / killing of Su.86.86 cells; format: cell-based; details: E266 versus E260; compound (I) as tartarate salt in 0.5% Tween-80; FIG. 4
Experimental: (§1) The compound (I), as tartarate salt was dissolved in 0.5% Tween-80 to affect the viability of several cell lines as follows.
(§2) The effect of the compound (I) (E266) on the growth profile of cancer cells which express Fer was tested. The cells that were tested were: the metastatic colon cancer cell line—SW620, the metastatic pancreatic ductal-adenocarcinoma SU.86.86 cancer cell-line—SU.86.86, the metastatic Triple Negative breast cancer cell line—MDA-MB-231, and the metastatic prostate cancer cell-line—PC3. The effect of the compound (I) (E266) on FS11 cells, a non malignant fibroblastic cell line, was also studied.

[2] = system: metastatic Triple negative MDA-MB-231 Breast cancer cells; test: viability / killing of MDA-MB-231 cells; format: cell-based; details: E266 versus E260; compound (I) as tartarate salt in 0.5% Tween-80; FIG. 5
Experimental: as §1, §2

[3] = insolubility level in PBS/Polysorbate-80 (Tween 80) solution; format: physicochemical; details: 0.5 mM and 1 mM in PBS/Polysorbate-80 (Tween 80) solution at 25° C. (FIG. 1A, 1B)

CC(C)c1ccc(-c2cn3nc(N4CCC(CN5CCN(CCO)CC5)CC4)sc3n2)cc1 [Compound E266, 2-(4-{1-[6-(4-isopropyl-phenyl)-imidazo[2,1-b][1,3,4]thiadiazol-2-yl]-piperidin-4-ylmethyl}-piperazin-1-yl)-ethanol]
killing metastatic pancreatic ductal adenocarcinoma Su.86.86 cancer cells [1]: comparable activity
killing metastatic Triple negative MDA-MB-231 Breast cancer cells [2]: comparable activity
solubility (insolubility level) [3]: soluble to a certain extent
